Patent publication US7084158B2, “Substituted propargylamines” (Bayer Cropscience S.A., priority 2001, dated 2006)

Test system: Aedes aegypti
Assay: Example AG: microtiter plate, yellow fever mosquito larvicidal activity
Format: in vivo
Set-up: key: compounds were considered to be active when, at a concentration of 500 ppm or less, they had an activity on the harmful organisms of 50% or more
Conditions: 500 ppm or less, after 3 days

Compound	larvicidal activity
Cc1cc(C#CCN2CCC(C)CC2)cc(C(F)(F)F)c1.Cl [Example 1069]	active
CC1CCN(CC#Cc2ccc(-c3ccc(OC(F)(F)F)cc3)s2)CC1 [Example 244]	active
CC1CCN(CC#Cc2ccc(Br)s2)CC1 [Example 215]	active
Cc1ccc(-c2ccc(C#CCN3CCC(C)CC3)cc2F)cc1 [Example 248]	active
CC1CCN(CC#Cc2cccc(-c3cccc(Cl)c3)c2)CC1 [Example 219]	active
CC1CCN(CC#Cc2ccc(C=NOCc3ccccc3)s2)CC1 [Example 292]	active
CC1CCN(CC#Cc2ccc(-c3ccc(F)c(Cl)c3)c(F)c2)CC1 [Example 249]	active
Cc1cc(C)nc(C#CCN2CCC(C)CC2)c1 [Example 294]	active
Cc1ccc(C#CCN2CCC(C)CC2)s1 [Example 293]	active
CC1CCN(CC#Cc2ccc(-c3ccc(C(F)(F)F)cc3)s2)CC1 [Example 242]	active
CC1CCN(CC#Cc2cccc(-c3cc(C(F)(F)F)cc(C(F)(F)F)c3)c2)CC1 [Example 218]	active
CC1CCN(CC#Cc2ccc(Cl)s2)CC1 [Example 216]	active
CCc1ccc(C#CCN2CCC(C)CC2)cc1F [Example 254]	active
CC1CCN(CC#Cc2ccc(C#N)c(Cl)c2)CC1 [Example 289]	active
Cc1cc(C#CCN2CCC(C)CC2)sc1Br [Example 213]	active

Test system: Diabrotica undecimpunctata
Assay: Example C: corn rootworm eggs with maize corn, mortality
Format: in vivo
Set-up: key: compounds were considered to be active when, at a concentration of 500 ppm or less, they had an activity on the harmful organisms of 50% or more
Conditions: 500 ppm or less; 4-5-day-old eggs; after 6 days

Compound	effect on the eggs and hatched larvae (mortality)
COc1ccc(-c2ccc(C#CCN3CCC(C)CC3)cc2F)cc1 [Example 231]	active
Cc1cc(C#CCN2CCC(C)CC2)cc(C(F)(F)F)c1.Cl [Example 1069]	active
CC1CCN(CC#Cc2ccc(Br)c(F)c2)CC1 [Example 207]	active
FC(F)(F)c1cc(C#CCN2CCC(C(F)(F)F)CC2)cc(C(F)(F)F)c1 [Example 205]	active
CC1CCN(CC#Cc2ccc(C(F)(F)F)cn2)CC1 [Example 58]	active
CC1CCCN(CC#Cc2cc(C(F)(F)F)cc(C(F)(F)F)c2)C1 (centres unmarked) [Example 31]	active
FC(F)(F)c1cccc(C#CCN2CCCC(C(F)(F)F)C2)c1 (centres unmarked) [Example 297]	active
FC(F)(F)c1cc(C#CCN2CCCC(C(F)(F)F)C2)nc(C(F)(F)F)c1 (centres unmarked) [Example 282]	active
CC1(C)CCCN(CC#Cc2cc(C(F)(F)F)cc(C(F)(F)F)c2)C1.Cl [Example 1001]	active
FC(F)(F)c1cc(C#CCN2CCCC(C(F)(F)F)C2)cc(C(F)(F)F)c1 (centres unmarked) [Example 281]	active
CC1CCN(CC#Cc2c(Cl)cc(C(F)(F)F)cc2Cl)CC1 [Example 295]	active
Cc1cc(C)nc(C#CCN2CCC(C)CC2)c1 [Example 201]	active
Cl.FC(F)(F)c1cc(C#CCN2CCC(C(F)(F)F)CC2)nc(C(F)(F)F)c1 [Example 1050]	active
CC1CCN(CC#Cc2cc(C(F)(F)F)cc(C(F)(F)F)c2)CC1.O=C(O)/C=C\C(=O)O [Example 1056]	active

Test system: Heliothis virescens
Assay: Example B: tobacco budworm eggs on filter paper/insect diet, mortality
Format: in vivo
Set-up: key: compounds were considered to be active when, at a concentration of 500 ppm or less, they had an activity on the harmful organisms of 50% or more
Conditions: 500 ppm or less; 24-hour-old eggs dipped, diet treated; after 6 days

Compound	effect on the eggs and hatched larvae (mortality)
CC1CCN(CC#Cc2ccc(-c3cccc(Cl)c3)s2)CC1 [Example 247]	active
CC(=O)c1ccc(C#CCN2CCC(C)CC2)s1 [Example 214]	active
Cc1cc(C#CCN2CCC(C)CC2)sc1-c1ccc(Cl)cc1 [Example 239]	active
CC1CCN(CC#Cc2ccc(Cl)cc2Cl)CC1.Cl [Example 1000]	active
CC1CCN(CC#Cc2ccc(-c3ccc(OC(F)(F)F)cc3)s2)CC1 [Example 244]	active
CC1CCN(CC#Cc2cccc(-c3cnc(Cl)c(Cl)c3)c2)CC1 [Example 224]	active
CC1CCN(CC#Cc2ccc(-c3ccc(Cl)cc3Cl)cc2)CC1 [Example 176]	active
CC1CCN(CC#Cc2ccc(Br)c(F)c2)CC1 [Example 207]	active
CC1CCN(CC#Cc2ccnc(C(F)(F)F)n2)CC1 [Example 167]	active
Cc1cc(Cl)ccc1C#CCN1CCC(C)CC1 [Example 100]	active
Cc1cc(C#CCN2CCC(C)CC2)sc1-c1ccc(F)cc1 [Example 232]	active
CC1CCN(CC#Cc2ccc(C=NOCc3ccc(Cl)cc3Cl)s2)CC1 [Example 296]	active
CC1CCN(CC#Cc2cccc(-c3ccc(Cl)s3)c2)CC1 [Example 225]	active
CC1CCN(CC#Cc2ccc(-c3cccc(Cl)c3)cc2)CC1 [Example 173]	active
CC1CCN(CC#Cc2ccc(-c3cc(C(F)(F)F)cc(C(F)(F)F)c3)s2)CC1 [Example 271]	active
CC1CCN(CC#Cc2cccc(C(F)(F)F)c2)CC1 [Example 24]	active
CC1CCN(CC#Cc2ccc(-c3cc(C(F)(F)F)ccc3Cl)cc2)CC1 [Example 171]	active
CC1CCN(CC#Cc2ccc(Br)s2)CC1 [Example 215]	active
CC1CCN(CC#Cc2ccc(C=NOCc3ccccc3)s2)CC1 [Example 292]	active
CC1CCN(CC#Cc2ccc(-c3ccccc3Cl)cc2)CC1 [Example 174]	active
Cc1ccc(-c2ccc(C#CCN3CCC(C)CC3)s2)cc1 [Example 241]	active
COc1ccc(-c2ccc(C#CCN3CCC(C)CC3)cc2)cc1 [Example 181]	active
Cc1ccc(-c2sc(C#CCN3CCC(C)CC3)cc2C)cc1 [Example 236]	active
CC1CCN(CC#Cc2cccc(-c3ccc(C(F)(F)F)cc3)c2)CC1 [Example 217]	active

Compound	effect on the eggs and hatched larvae (mortality)
CC1CCN(CC#Cc2ccc(-c3cc(Cl)cc(Cl)c3)s2)CC1 [Example 273]	active
CC1CCN(CC#Cc2ccc(-c3ccccc3)s2)CC1 [Example 240]	active
CC1CCN(CC#Cc2ccc(-c3cc(F)cc([N+](=O)[O-])c3)cc2)CC1 [Example 177]	active
CC1CCN(CC#Cc2ccc(Cl)s2)CC1 [Example 216]	active
CC1CCN(CC#Cc2cc(Cl)cc(Cl)c2)CC1.Cl [Example 1011]	active
CC1CCN(CC#Cc2cccc(-c3ccc(C#N)cc3)c2)CC1 [Example 226]	active
CCOC(=O)c1cccc(-c2ccc(C#CCN3CCC(C)CC3)cc2)c1 [Example 178]	active
CC1CCN(CC#Cc2ccc(-c3cccc(C(F)(F)F)c3)cc2)CC1 [Example 182]	active
CCc1ccc(C#CCN2CCC(C)CC2)cc1F [Example 254]	active
CC1CCN(CC#Cc2ccc(-c3ccccc3)cc2)CC1 [Example 119]	active
Cc1ccc(C#CCN2CCC(C)CC2)cc1C(F)(F)F [Example 284]	active
CC1CCN(CC#Cc2ccc(-c3cccc(C(F)(F)F)c3)s2)CC1 [Example 229]	active
CC1CCN(CC#Cc2ccc(C#N)c(Cl)c2)CC1 [Example 289]	active
CC1CCN(CC#Cc2cccc(-c3ccc(Cl)cc3)c2)CC1 [Example 222]	active
CC1CCN(CC#Cc2c(Cl)cc(C(F)(F)F)cc2Cl)CC1 [Example 295]	active
Cc1cc(C)nc(C#CCN2CCC(C)CC2)c1 [Example 201]	active
CC1CCN(CC#Cc2cc(Cl)c(OC(F)(F)C(F)Cl)c(Cl)c2)CC1 (centres unmarked) [Example 283]	active
CC1CCN(CC#Cc2ccc(F)c(Cl)c2)CC1 [Example 124]	active
CC1CCN(CC#Cc2ccc(F)c(C(F)(F)F)c2)CC1 [Example 285]	active
Cc1cccc(-c2ccc(C#CCN3CCC(C)CC3)s2)c1 [Example 246]	active
Cc1c(Cl)cccc1C#CCN1CCC(C)CC1 [Example 97]	active
CC1CCN(CC#Cc2ccc(-c3ccc(C(F)(F)F)cc3)cc2)CC1 [Example 172]	active
CC1CCN(CC#Cc2cc(C(F)(F)F)cc(C(F)(F)F)c2)CC1.O=C(O)/C=C\C(=O)O [Example 1056]	active
CC1CCN(CC#Cc2cccc(-c3cccc4ccccc34)c2)CC1 [Example 221]	active
